Laboratory results reported in PMC9931771, “Surufatinib plus toripalimab in patients with advanced solid tumors: a single-arm, open-label, phase 1 trial” (Journal of Cancer Research and Clinical Oncology, 2022).
Read-outs that look alike come from different tables or passages of the source.

What was measured:
[1] = Phase 1 trial: pharmacokinetics of surufatinib and toripalimab (non-compartmental analysis); format: in vivo, human; conditions: for Surufatinib accumulation ratio of AUC0-τ: Cycle 2 Day 1 compared to Cycle 1 Day 1; for AUC / Cmax / Tmax / Vd/F / half-life: human, in vivo, oral; for AUC: read-out: Surufatinib AUC0-τ, geometric mean (CV%); for Cmax: read-out: Surufatinib Cmax, geometric mean (CV%); for Tmax: read-out: Surufatinib Tmax, median; for Vd/F: read-out: Surufatinib Vd/F, geometric mean (CV%); for half-life: read-out: Surufatinib t1/2, median (converted)
Source text: Blood samples were collected for PK evaluation at multiple time points on Cycle 1 Day 1, Cycle 2 Day 1, and Cycle 3 Day 1 for surufatinib and toripalimab, respectively.
DLT events were based on the DLT evaluable population, including patients who received at least 1 cycle of treatment and completed all safety assessments within the DLT assessment window or discontinued early due to DLT in the dose-escalation stage. All safety analyses, progression-free survival (PFS), and overall survival (OS) statistics were based on the safety population, including patients who received at least 1 dose of any study drug. All efficacy endpoints, excluding PFS and OS, were analyzed based on the efficacy evaluable population, including all patients who received at least 1 dose of any study drug and had tumor assessment at baseline and post drug administration prior to initiation of new anti-cancer therapies. The PK analysis was based on the PK population, which included all patients who received at least one dose of the study drug, had at least one PK sample collected and analyzed, and had no protocol deviation that might affect the PK data.
Two-sided 95% confidence interval (CI) of ORR and DCR were computed using the Exact (Clopper–Pearson) method. For time-to-event variables [PFS, OS, DoR (duration of response) and TTR (time to response)], median event time as well as the corresponding 95% CI were estimated using Kaplan–Meier method. All statistical analyses were performed using SAS 9.4 software. Adverse events (AEs) were graded by NCI CTCAE (Common Terminology Criteria for Adverse Events) v4.03, and coded using the Medical Dictionary for Regulatory Activities (MedDRA) v23.1. Treatment-related AEs (TRAEs) referred to AEs related to surufatinib or toripalimab, which were judged by the investigators. PK parameters were calculated by non-compartmental analysis using Phoenix WinNonlin v8.0.

[2] = test system: advanced well-differentiated pancreatic NET; set-up: method as in Xu et al. [2020a], [b]; conditions: phase 3 trial, ref Xu et al. [2020a], [b]; cited from earlier work
[3] = test system: advanced well-differentiated extrapancreatic NET; set-up: method as in Xu et al. [2020a], [b]; conditions: phase 3 trial, ref Xu et al. [2020a], [b]; cited from earlier work
[4] = test system: tumor-associated macrophages (TAMs); set-up: method as in Zhou et al. [2017]; conditions: preclinical studies; ref Zhou et al. [2017]; cited from earlier work
[5] = surufatinib 200 mg + toripalimab 240 mg, C1D1, N 6
[6] = surufatinib 200 mg + toripalimab 240 mg, C1D1, footnote 1 (N 4)
[7] = surufatinib 200 mg + toripalimab 240 mg, C2D1, N 6
[8] = surufatinib 200 mg + toripalimab 240 mg, C3D1, N 3
[9] = surufatinib 200 mg + toripalimab 240 mg, C3D1, footnote 3 (N 2)
[10] = surufatinib 250 mg + toripalimab 240 mg, C1D1, N 12
[11] = surufatinib 250 mg + toripalimab 240 mg, C2D1, N 11
[12] = surufatinib 250 mg + toripalimab 240 mg, C3D1, N 9
[13] = surufatinib 250 mg + toripalimab 240 mg, C3D1, footnote 3 (N 8)
[14] = surufatinib 300 mg + toripalimab 240 mg, C1D1, N 12
[15] = surufatinib 300 mg + toripalimab 240 mg, C1D1, footnote 1 (N 10)
[16] = surufatinib 300 mg + toripalimab 240 mg, C2D1, N 10
[17] = surufatinib 300 mg + toripalimab 240 mg, C3D1, N 10

Surufatinib accumulation ratio of AUC0-τ ([1]; 200 mg QD): 1.8 | Surufatinib accumulation ratio of AUC0-τ ([1]; 250 mg QD): 2.0 | Surufatinib accumulation ratio of AUC0-τ ([1]; 300 mg QD): 2.1 | AUC ([1]; surufatinib 200 mg + toripalimab 240 mg, C1D1, N 4): 1840 ng·h/mL | Cmax [1, 5]: 277 ng/mL | Tmax [1, 5]: 1.98 h | Vd/F [1, 6]: 926 L | half-life [1, 6]: 4.49 h | AUC ([1]; surufatinib 200 mg + toripalimab 240 mg, C2D1, N 3): 3010 ng·h/mL | Cmax [1, 7]: 268 ng/mL | Tmax [1, 7]: 2.97 h | half-life ([1]; surufatinib 200 mg + toripalimab 240 mg, C2D1, footnote 4 (N 3)): 13.1 h | AUC ([1]; surufatinib 200 mg + toripalimab 240 mg, C3D1, N 2): 2300 ng·h/mL | Cmax [1, 8]: 239 ng/mL | Tmax [1, 8]: 1.98 h | Vd/F [1, 9]: 1080 L | half-life [1, 9]: 10.1 h | AUC [1, 10]: 1840 ng·h/mL | Cmax [1, 10]: 289 ng/mL | Tmax [1, 10]: 1.6 h | Vd/F [1, 10]: 1660 L | half-life [1, 10]: 11.1 h | AUC [1, 11]: 3610 ng·h/mL | Cmax [1, 11]: 407 ng/mL | Tmax [1, 11]: 2 h | half-life [1, 11]: 11.9 h | AUC ([1]; surufatinib 250 mg + toripalimab 240 mg, C3D1, N 8): 2400 ng·h/mL | Cmax [1, 12]: 310 ng/mL | Tmax [1, 12]: 1.93 h | Vd/F [1, 13]: 2540 L | half-life [1, 13]: 15.6 h | AUC ([1]; surufatinib 300 mg + toripalimab 240 mg, C1D1, N 10): 1880 ng·h/mL | Cmax [1, 14]: 228 ng/mL | Tmax [1, 14]: 2 h | Vd/F [1, 15]: 1620 L | half-life [1, 15]: 8.12 h | AUC ([1]; surufatinib 300 mg + toripalimab 240 mg, C2D1, N 9): 3670 ng·h/mL | Cmax [1, 16]: 281 ng/mL | Tmax [1, 16]: 2.97 h | half-life ([1]; surufatinib 300 mg + toripalimab 240 mg, C2D1, footnote 4 (N 8)): 14.4 h | AUC [1, 17]: 3500 ng·h/mL | Cmax [1, 17]: 361 ng/mL | Tmax [1, 17]: 2 h | Vd/F [1, 17]: 1510 L | half-life [1, 17]: 12.2 h | Surufatinib CL/F, geometric mean (CV%) [1, 6]: 89.5 (23.9) ^1 L/h | Surufatinib CL/F, geometric mean (CV%) [1, 9]: 87.0 (24.3) ^3 L/h | Surufatinib CL/F, geometric mean (CV%) [1, 10]: 110 (34.6) L/h | Surufatinib CL/F, geometric mean (CV%) [1, 13]: 104 (45.0)^3 L/h | Surufatinib CL/F, geometric mean (CV%) [1, 15]: 134 (30.7) ^1 L/h | Surufatinib CL/F, geometric mean (CV%) [1, 17]: 84.3 (34.9) L/h
Structure (SMILES): Cc1cc2cc(Oc3ccnc(Nc4cccc(CS(=O)(=O)NCCN(C)C)c4)n3)ccc2[nH]1 [surufatinib]
DCR [2]: 80.8% | ORR [2]: 19.2% | DCR [3]: 86.5% | ORR [3]: 10.3% | Effect on M1 TAMs [4]: increased | Effect on M2 tumor-associated macrophages (TAMs) [4]: decreased
